Results on two compounds are retold here after article PMC10650464, “Natural Compounds Purified from the Leaves of Aristotelia chilensis: Makomakinol, a New Alkaloid and the Effect of Aristoteline and Hobartine on NaV Channels” (International Journal of Molecular Sciences, 2023).

The test system of assay [1] is rodent vascular smooth muscle. The arrangement: method as in PMID 31362388. The following applies: rodent vascular smooth muscle ex vivo; via activation of potassium channels and inhibition of CaV1.2; read-out: IC50, vasodilation; cited from earlier work.
The target in a further assay is T1, human NaV1.8/β3 (Homo sapiens, UniProt Q9Y5Y9).
T1 construct: expressed in transfected cells
Briefly: Automated whole-cell patch-clamp electrophysiology (QPatch-16), NaV1.8. In kind it is cell-based. Particulars: for IC50: CHO cells, mean ± SEM; for V1/2 of voltage-dependence of activation of NaV1.8 / V1/2 of voltage-dependence of steady-state fast inactivation of NaV1.8: compound at 50 µM, compared with control before addition, paired t-test. The protocol: (§1) Human embryonic kidney (HEK) 293 cells stably expressing human NaV1.7/β1 (SB Drug Discovery, Glasgow, UK) or Chinese hamster ovary (CHO) cells stably expressing human NaV1.8/β3 in a tetracycline-inducible system were cultured in a minimum essential media (MEM) supplemented with 10% fetal bovine serum (FBS), 2 mM l-glutamine, and selection antibiotics as recommended by the manufacturer. To induce hNaV1.8 expression, tetracycline (1 μg/mL) was added to the culture media 72 h prior to the functional assays. The cells were passaged every 3–4 days after reaching a 70–80% confluence using TrypLE Express (Thermo Fisher Scientific, Scoresby, VIC, Australia) and grown in an incubator at 37 °C with 5% CO2. Prior to the electrophysiology experiments, the cells were dissociated with TrypLE Express and resuspended in Dulbecco’s Modified Eagle Medium (DMEM) with 25 mM HEPES, 100 U/mL penicillin-streptomycin, and 0.04 mg/mL of a trypsin inhibitor from Glycine max (soybean), then stirred for 30 min.
Whole-cell patch-clamp experiments were performed on a QPatch-16 automated electrophysiology platform (Sophion Bioscience, Ballerup, Denmark) using single hole (QPlate 16 with a standard resistance of 2 ± 0.4 MΩ for NaV1.7) or multi-hole (QPlate 16× with a standard resistance 0.2 ± 0.04 MΩ for NaV1.8). Whole-cell currents were filtered at 8 kHz and acquired at 25 kHz and the linear leak was corrected using P/4 subtraction (leak potential −90 mV, leak sweep amplitude 10%).
The extracellular solution contained in mM included NaCl 140 (NaCl 70/Choline Chloride 70 for NaV1.7), KCl 4, CaCl2 2, MgCl2 1, HEPES 10, and glucose 10; pH 7.4; osmolarity 305 mOsm. TTX (1 μM) was added to the extracellular solution for the NaV1.8 recordings to inhibit endogenous TTX-sensitive NaV currents in CHO cells. The intracellular solution contained in mM included CsF 140, EGTA/CsOH 1/5, HEPES 10, and NaCl 10; pH 7.3 with CsOH; osmolarity 320 mOsm. Compounds were made up to a 100 mM stock in DMSO and diluted in an extracellular solution at the concentrations stated. Concentration–response curves at the resting state were acquired using a holding potential of −90 mV and a 50 ms test pulse to −20 mV (for NaV1.7) or +10 mV (for NaV1.8) every 20 s (0.05 Hz). Concentration–response curves at the inactivated state were acquired using a holding potential of −90 mV, an 8 s conditioning pulse to −40 mV, a 20 ms recovery pulse to −90 mV, and a 50 ms test pulse to +10 mV every 20 s (0.05 Hz). Peak current was normalized to the buffer control after 2 min incubations of increasing concentrations of the compound (1–100 μM). I–V curves were obtained with a holding potential of −90 mV and a series of 500 ms step pulses that ranged from −80 to +90 mV in 5 mV increments, followed by a 20 ms test pulse to +10 mV to assess the voltage-dependence of the steady-state fast inactivation (repetition interval 5 s). Peak currents were normalized to the buffer control before and after the 5 min incubation of the compound (50 μM).
The data were plotted and analyzed via GraphPad Prism, version 9.5.1. Statistical significance was defined as p < 0.05 and was determined via the paired t-test. Concentration–response curves were fitted with a four-parameter Hill equation with the variable Hill coefficient. Conductance–voltage curves were generated by calculating the conductance (G) at each voltage (V) using the equation G = I/(V − Vrev), where Vrev is the reversal potential. Conductance–voltage and steady-state fast inactivation relationships were fitted using a Boltzmann equation. The data are expressed as the mean ± standard error of the mean (SEM).
On the technique in general: The patch-clamp technique gives a direct electrical read-out from membranes.

The target of the next assay is human NaV1.7/β1 (Homo sapiens, UniProt Q15858). Kind of assay: Automated whole-cell patch-clamp electrophysiology (QPatch-16), NaV1.7. The assay is classed as cell-based. The following applies: 50 ms voltage step to −20 mV from −90 mV holding potential; HEK293 cells; mean ± SEM; read-out: IC50, inhibition of NaV1.7 peak current. The protocol: as §1, with “min. […]” for “min.”
The data were plotted and analyzed via GraphPad Prism, version 9.5.1. Statistical significance was defined as p < 0.05 and was determined via the paired t-test. […] The data are expressed as the mean ± standard error of the mean (SEM).

Another assay deals with nAChR subtype α3β4. More on the design: method as in PMID 31276409. Particulars: cited from earlier work.
[2] abbreviates: 8 s conditioning voltage step to −40 mV to inactivate approximately half of the available channels, read-out: IC50, inhibition of NaV1.8 peak current after inactivating conditioning step.
[3] abbreviates: resting state: 50 ms voltage step to 10 mV from −90 mV holding potential, read-out: IC50, inhibition of NaV1.8 peak current.

Structures are written as SMILES. Read-outs that look alike come from different tables or passages of the source.

T1 sequence (Q9Y5Y9 whole entry): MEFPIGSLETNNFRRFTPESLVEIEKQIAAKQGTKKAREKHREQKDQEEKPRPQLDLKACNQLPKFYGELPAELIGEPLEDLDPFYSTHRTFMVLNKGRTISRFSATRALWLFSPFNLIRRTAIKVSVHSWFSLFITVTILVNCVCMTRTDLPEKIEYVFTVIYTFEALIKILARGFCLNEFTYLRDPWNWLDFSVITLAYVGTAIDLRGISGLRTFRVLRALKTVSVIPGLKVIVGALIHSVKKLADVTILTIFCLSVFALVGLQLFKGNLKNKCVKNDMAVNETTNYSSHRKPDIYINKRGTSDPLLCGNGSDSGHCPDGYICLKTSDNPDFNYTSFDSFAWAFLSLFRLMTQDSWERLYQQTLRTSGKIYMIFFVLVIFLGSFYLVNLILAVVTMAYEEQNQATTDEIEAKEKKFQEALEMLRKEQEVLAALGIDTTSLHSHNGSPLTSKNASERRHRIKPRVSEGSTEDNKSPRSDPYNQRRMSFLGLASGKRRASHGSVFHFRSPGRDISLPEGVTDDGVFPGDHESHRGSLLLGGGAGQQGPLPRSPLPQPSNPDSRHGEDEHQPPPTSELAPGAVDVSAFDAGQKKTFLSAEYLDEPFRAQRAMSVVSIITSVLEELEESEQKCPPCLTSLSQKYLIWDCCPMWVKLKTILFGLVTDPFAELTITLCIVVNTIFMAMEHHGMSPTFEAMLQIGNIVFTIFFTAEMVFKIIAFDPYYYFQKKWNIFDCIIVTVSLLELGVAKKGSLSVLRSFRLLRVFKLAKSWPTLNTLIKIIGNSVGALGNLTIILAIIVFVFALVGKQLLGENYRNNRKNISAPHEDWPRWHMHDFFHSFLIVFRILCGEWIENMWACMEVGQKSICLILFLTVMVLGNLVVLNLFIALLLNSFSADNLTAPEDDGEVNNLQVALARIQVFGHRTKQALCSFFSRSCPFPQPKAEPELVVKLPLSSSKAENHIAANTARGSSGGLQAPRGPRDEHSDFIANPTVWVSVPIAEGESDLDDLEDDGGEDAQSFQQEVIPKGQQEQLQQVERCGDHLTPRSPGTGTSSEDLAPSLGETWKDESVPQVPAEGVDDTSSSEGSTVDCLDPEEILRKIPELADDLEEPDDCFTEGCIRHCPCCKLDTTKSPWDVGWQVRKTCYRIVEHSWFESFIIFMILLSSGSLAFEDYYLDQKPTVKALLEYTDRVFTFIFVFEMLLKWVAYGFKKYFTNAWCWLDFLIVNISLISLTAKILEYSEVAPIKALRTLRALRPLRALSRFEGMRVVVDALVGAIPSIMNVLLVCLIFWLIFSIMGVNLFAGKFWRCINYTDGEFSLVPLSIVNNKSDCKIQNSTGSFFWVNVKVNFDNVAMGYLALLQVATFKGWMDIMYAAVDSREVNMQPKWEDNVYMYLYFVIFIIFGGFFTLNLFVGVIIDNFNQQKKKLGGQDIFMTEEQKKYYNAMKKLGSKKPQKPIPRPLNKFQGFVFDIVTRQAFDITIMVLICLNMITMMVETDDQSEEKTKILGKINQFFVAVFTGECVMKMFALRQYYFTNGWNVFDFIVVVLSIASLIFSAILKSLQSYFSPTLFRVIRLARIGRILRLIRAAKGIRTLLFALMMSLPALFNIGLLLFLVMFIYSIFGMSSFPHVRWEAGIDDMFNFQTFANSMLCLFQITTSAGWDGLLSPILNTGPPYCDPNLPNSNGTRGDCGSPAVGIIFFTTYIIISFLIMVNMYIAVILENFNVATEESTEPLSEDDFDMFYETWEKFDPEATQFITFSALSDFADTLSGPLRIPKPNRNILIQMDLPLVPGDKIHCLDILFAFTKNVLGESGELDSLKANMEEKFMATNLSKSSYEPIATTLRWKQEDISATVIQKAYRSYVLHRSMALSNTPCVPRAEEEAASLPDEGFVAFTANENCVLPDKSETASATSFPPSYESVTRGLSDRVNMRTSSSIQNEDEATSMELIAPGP
T1 sequence (Q9NY72 25-215 partner limits assumed): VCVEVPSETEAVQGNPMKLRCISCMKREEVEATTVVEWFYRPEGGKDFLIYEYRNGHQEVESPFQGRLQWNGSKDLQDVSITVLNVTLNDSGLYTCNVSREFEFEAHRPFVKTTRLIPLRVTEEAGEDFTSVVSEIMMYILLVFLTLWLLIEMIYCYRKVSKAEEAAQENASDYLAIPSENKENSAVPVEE
human NaV1.7/β1, sequence (Q15858 whole entry): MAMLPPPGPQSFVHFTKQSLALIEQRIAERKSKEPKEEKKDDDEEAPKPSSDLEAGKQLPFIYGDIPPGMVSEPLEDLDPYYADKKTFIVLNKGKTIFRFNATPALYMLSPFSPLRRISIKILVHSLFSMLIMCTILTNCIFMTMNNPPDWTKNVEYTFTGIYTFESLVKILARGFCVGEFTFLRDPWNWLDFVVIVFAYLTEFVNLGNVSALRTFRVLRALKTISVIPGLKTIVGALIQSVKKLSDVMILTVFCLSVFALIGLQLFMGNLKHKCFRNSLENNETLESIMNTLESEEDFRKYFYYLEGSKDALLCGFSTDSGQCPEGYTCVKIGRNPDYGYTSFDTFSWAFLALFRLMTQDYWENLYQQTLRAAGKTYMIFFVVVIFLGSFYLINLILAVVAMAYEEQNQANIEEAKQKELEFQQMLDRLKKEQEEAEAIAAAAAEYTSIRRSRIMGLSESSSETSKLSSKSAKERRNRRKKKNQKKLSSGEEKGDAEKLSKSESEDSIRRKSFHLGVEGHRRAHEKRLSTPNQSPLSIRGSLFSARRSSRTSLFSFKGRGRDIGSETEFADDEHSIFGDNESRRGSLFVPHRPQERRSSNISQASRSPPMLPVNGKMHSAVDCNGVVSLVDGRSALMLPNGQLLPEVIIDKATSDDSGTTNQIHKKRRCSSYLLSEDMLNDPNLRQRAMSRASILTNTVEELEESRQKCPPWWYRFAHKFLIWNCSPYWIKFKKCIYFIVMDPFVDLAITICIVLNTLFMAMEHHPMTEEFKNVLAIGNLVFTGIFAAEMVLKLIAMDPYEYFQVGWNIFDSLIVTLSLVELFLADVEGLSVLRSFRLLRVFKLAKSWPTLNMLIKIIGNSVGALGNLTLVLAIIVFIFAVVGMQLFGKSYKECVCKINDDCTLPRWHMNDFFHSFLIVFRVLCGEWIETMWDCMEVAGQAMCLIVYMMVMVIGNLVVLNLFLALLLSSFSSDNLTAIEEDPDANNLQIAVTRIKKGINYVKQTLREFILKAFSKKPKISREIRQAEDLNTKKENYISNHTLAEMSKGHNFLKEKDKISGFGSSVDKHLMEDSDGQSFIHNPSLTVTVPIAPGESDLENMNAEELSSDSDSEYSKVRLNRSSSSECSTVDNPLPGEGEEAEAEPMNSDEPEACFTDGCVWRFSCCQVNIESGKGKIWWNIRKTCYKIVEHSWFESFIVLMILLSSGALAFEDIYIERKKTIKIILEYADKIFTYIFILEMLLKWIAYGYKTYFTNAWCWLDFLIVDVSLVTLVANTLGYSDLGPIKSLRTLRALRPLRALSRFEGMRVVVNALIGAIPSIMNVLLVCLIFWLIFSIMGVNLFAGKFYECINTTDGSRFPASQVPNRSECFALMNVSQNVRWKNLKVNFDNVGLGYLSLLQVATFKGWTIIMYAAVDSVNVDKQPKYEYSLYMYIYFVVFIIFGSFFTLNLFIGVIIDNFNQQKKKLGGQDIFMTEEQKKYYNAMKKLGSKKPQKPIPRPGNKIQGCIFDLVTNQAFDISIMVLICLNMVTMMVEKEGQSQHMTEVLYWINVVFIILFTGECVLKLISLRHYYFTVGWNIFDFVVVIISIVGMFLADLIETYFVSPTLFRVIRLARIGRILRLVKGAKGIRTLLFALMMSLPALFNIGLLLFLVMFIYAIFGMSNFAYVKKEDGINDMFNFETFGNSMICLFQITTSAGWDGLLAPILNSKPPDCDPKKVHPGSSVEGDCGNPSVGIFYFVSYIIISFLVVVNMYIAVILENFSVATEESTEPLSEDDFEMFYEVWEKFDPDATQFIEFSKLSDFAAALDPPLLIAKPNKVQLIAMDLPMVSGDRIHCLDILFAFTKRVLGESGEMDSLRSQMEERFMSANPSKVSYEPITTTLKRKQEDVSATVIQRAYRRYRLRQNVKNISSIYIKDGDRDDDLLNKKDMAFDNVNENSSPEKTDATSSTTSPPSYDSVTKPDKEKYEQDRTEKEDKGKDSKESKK
human NaV1.7/β1, sequence (Q07699 19-218 partner): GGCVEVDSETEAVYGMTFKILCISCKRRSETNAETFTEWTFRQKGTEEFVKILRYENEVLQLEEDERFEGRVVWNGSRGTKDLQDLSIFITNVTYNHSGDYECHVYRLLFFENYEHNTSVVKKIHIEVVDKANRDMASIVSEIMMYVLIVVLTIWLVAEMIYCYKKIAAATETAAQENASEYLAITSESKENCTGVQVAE

Usually IC50 stands for the concentration at which inhibition is half-maximal. With `CC1(C)NC2Cc3c([nH]c4ccccc34)C3(C)CCC1CC23` (stereo not shown) [aristoteline], the IC50 in assay [1] is 16 µM; at human NaV1.8/β3 (setting [2]) it was 30 ± 6 µM; on human NaV1.8/β3 (setting [3]) it was 68 ± 3 µM; on human NaV1.7/β1, 49 ± 7 µM; in the assay with nAChR subtype α3β4 it was 0.4 µM. Also, on human NaV1.8/β3, the “V1/2 of voltage-dependence of activation of NaV1.8” value is on record as 1.0 ± 0.0 mV. Further, the “V1/2 of voltage-dependence of steady-state fast inactivation of NaV1.8” value on human NaV1.8/β3 is −34.9 ± 1.4 mV.
`CC1=CC[C@H]2C[C@@H]1[C@@H](Cc1c[nH]c3ccccc13)NC2(C)C` [hobartine]: the “Shift of V1/2 of voltage-dependence of activation of NaV1.8” value on human NaV1.8/β3 (50 µM, n = 5) was −9.0 mV. Further, the values for the half-maximal inhibitory concentration (IC50) at human NaV1.8/β3 (setting [2]), at human NaV1.8/β3 (setting [3]) and at human NaV1.7/β1 were 20 ± 2 µM, 54 ± 1 µM and 69 ± 3 µM, respectively. Further, on human NaV1.8/β3, the “V1/2 of voltage-dependence of activation of NaV1.8” value is −8.6 ± 0.8 mV. On human NaV1.8/β3, the “V1/2 of voltage-dependence of steady-state fast inactivation of NaV1.8” value is recorded as −41.1 ± 3.8 mV.
